Usually IC50 stands for the concentration that inhibits the measured activity by half. High values mean weaker potency, low ones greater potency.

The text below walks through data of US12030878B2 (BRISTOL-MYERS SQUIBB COMPANY, priority 2017, dated 2024).

Type in all cases: cell-based
One experiment addresses T1, human TLR7 (Homo sapiens, UniProt Q9NYK1).
T1 construct: host or cells: HEK-Blue cells
T1 sequence (Q9NYK1 27-1049): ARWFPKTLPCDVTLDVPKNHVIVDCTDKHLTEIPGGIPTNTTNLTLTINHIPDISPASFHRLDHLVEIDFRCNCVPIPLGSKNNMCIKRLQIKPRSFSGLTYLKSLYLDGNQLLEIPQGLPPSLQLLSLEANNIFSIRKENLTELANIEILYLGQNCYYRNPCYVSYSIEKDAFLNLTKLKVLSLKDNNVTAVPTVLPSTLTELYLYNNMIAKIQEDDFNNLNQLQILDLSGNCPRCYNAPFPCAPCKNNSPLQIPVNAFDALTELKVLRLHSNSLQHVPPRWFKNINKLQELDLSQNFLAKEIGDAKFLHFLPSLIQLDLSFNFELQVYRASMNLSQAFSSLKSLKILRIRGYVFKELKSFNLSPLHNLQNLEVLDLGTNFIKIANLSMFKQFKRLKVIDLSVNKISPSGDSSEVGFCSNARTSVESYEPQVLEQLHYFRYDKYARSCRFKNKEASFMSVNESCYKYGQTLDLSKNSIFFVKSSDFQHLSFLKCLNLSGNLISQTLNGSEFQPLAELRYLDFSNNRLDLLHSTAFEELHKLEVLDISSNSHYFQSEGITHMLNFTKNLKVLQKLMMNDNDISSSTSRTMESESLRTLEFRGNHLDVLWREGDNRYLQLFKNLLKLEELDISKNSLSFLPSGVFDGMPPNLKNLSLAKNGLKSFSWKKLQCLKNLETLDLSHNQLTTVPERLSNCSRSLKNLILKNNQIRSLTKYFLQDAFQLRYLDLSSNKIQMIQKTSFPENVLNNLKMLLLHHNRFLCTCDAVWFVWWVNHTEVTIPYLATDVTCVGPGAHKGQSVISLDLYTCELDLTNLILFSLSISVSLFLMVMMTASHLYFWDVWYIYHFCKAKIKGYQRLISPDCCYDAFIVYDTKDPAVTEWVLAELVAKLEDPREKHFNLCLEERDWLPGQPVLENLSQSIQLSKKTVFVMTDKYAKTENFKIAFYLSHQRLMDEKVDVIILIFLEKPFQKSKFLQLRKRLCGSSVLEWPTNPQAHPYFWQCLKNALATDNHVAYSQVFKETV
The experiment in a line: TLR7 inhibition reporter assay (HEK-Blue SEAP). The settings on record: HEK-Blue cells overexpressing human TLR7, stimulated with gardiquimod 7.5 μM, 22 hour incubation. The procedure, abridged:
(§1)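 SEAP read-out via HEK-Blue Detection medium after 22 h at 37 °C; percent inhibition relative to agonist-plus-DMSO and known-inhibitor wells. Agonists: TLR7 gardiquimod 7.5 μM, TLR8 R848 15.9 μM, TLR9 ODN2006 5 nM. Dose range 0.05 nM–50 μM, 30 min compound pre-treatment at RT.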
A general note: In a reporter assay the amount or activity of a reporter protein is the signal.

The target of another experiment is T2, human TLR8 (Homo sapiens, UniProt Q9NR97).
T2 construct: host or cells: HEK-Blue cells
T2 sequence (Q9NR97 27-1041): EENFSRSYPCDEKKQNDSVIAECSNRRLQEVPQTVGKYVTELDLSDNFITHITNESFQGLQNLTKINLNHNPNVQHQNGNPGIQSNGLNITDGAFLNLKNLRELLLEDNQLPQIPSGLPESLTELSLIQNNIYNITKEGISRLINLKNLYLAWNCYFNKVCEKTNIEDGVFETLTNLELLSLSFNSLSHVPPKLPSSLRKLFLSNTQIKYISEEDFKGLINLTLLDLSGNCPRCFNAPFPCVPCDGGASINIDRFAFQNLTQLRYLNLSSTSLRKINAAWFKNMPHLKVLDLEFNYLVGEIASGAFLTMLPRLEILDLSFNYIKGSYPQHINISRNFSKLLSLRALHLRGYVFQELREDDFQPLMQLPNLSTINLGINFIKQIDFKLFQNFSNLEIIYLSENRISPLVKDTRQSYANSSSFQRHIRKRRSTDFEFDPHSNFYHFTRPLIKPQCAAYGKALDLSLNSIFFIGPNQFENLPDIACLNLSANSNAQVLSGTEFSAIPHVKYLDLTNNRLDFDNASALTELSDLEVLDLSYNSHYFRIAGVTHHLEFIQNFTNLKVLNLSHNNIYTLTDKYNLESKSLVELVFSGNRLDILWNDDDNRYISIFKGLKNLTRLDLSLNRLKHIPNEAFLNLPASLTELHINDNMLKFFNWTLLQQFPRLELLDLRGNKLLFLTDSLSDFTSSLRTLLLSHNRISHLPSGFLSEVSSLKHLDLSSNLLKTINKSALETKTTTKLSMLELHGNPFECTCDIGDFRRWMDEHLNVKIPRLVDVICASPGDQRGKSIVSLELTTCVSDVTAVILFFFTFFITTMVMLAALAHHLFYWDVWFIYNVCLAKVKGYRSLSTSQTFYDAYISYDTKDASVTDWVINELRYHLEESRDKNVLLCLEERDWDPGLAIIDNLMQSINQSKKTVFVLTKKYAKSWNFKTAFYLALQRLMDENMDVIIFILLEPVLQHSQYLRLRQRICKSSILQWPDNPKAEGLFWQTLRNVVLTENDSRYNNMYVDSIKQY
The experiment in a line: TLR8 inhibition reporter assay (HEK-Blue SEAP). The settings on record: HEK-Blue cells overexpressing human TLR8, stimulated with R848 15.9 μM, 22 hour incubation. The procedure, abridged: as §1

A further experiment deals with T3, human TLR9 (Homo sapiens, UniProt Q9NR96).
T3 construct: host or cells: HEK-Blue cells
T3 sequence (Q9NR96 26-1032): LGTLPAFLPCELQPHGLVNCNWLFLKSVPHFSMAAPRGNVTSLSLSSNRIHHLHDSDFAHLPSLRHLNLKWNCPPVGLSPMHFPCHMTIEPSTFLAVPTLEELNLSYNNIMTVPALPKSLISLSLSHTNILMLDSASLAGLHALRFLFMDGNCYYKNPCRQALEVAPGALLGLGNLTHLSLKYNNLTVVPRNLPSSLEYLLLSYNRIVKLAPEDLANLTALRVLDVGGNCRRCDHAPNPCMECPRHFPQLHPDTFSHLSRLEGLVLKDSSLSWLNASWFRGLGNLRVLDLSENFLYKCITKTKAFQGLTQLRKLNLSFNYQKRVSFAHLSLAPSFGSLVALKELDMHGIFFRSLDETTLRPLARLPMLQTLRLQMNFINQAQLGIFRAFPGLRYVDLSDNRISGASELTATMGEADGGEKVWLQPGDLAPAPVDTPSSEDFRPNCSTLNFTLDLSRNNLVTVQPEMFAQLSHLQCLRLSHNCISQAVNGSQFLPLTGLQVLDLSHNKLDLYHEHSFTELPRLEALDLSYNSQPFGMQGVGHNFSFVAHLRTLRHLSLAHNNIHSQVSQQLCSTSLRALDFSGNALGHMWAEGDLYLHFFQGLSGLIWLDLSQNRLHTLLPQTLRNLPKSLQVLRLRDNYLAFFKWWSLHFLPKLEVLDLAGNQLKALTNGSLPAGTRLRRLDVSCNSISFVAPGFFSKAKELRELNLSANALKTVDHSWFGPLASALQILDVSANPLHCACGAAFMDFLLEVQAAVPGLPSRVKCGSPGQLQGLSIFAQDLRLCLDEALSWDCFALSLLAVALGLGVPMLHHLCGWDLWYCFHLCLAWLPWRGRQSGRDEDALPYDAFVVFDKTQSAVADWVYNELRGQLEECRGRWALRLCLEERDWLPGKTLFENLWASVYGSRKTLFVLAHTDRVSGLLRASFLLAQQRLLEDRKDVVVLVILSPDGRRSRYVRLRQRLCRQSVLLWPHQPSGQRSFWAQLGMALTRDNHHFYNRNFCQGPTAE
In words: TLR9 inhibition reporter assay (HEK-Blue SEAP). The settings on record: HEK-Blue cells overexpressing human TLR9, stimulated with ODN2006 5 nM, 22 hour incubation. The procedure, abridged:
as §1

The structures appear in SMILES notation.

Turning to `Cc1cc(-c2[nH]c3ccc(OC4CCN(CC(=O)N(C)C)CC4)cc3c2C(C)C)cc(C)n1` [Example 79, 2-(4-((2-(2,6-dimethylpyridin-4-yl)-3-isopropyl-1H-indol-5-yl)oxy)piperidin-1-yl)-N,N-dimethylacetamide], the 50% inhibitory concentration (IC50) against human TLR7 stood at 8 nM; against human TLR8 it was 3.2 nM; on human TLR9 it was 447 nM.
For the compound `Cc1cc(-c2[nH]c3ccc(OCC4CCN(CC(=O)N(C)C)CC4)cc3c2C(C)C)cc(C)n1` [Example 80, 2-(4-(((2-(2,6-dimethylpyridin-4-yl)-3-isopropyl-1H-indol-5-yl)oxy)methyl)piperidin-1-yl)-N,N-dimethylacetamide], the IC50 on human TLR7 came to 7.7 nM; at human TLR8 it was 8.5 nM; against human TLR9, 398 nM.
For the compound `Cc1cc(-c2[nH]c3ccc(OCC4CCN(CC(=O)N(C)C)CC4)cc3c2C(C)C)cn(C)c1=O` [Example 81, 2-(4-(((2-(1,5-dimethyl-6-oxo-1,6-dihydropyridin-3-yl)-3-isopropyl-1H-indol-5-yl)oxy)methyl)piperidin-1-yl)-N,N-dimethylacetamide], the values for the IC50 on human TLR7, at human TLR8 and at human TLR9 were 26.1 nM, 9.7 nM and 24900 nM, respectively.
Consider `Cc1cc(-c2[nH]c3ccc(O[C@H]4CCCN(CC(=O)N(C)C)C4)cc3c2C(C)C)cn(C)c1=O` [Example 82, (S)-2-(3-((2-(1,5-dimethyl-6-oxo-1,6-dihydropyridin-3-yl)-3-isopropyl-1H-indol-5-yl)oxy)piperidin-1-yl)-N,N-dimethylacetamide], for which the figures for the IC50 against human TLR7, against human TLR8 and at human TLR9 were 17.3 nM, 27.6 nM and 40600 nM, respectively.
`Cc1cc(-c2[nH]c3ccc(O[C@H]4CCCN(CC(=O)N(C)C)C4)cc3c2C(C)C)cn2ncnc12` [Example 83, (S)-2-(3-((3-isopropyl-2-(8-methyl-[1,2,4]triazolo[1,5-a]pyridin-6-yl)-1H-indol-5-yl)oxy)piperidin-1-yl)-N,N-dimethylacetamide]: the results for the 50% inhibitory concentration (IC50) at human TLR7, at human TLR8 and at human TLR9 were 1.8 nM, 28.2 nM and 5670 nM, respectively.
Consider `Cc1cc(-c2[nH]c3ccc(OC4CCCN(CC(=O)N(C)C)C4)cc3c2C(C)C)cn(C)c1=O` (stereo not drawn) [Example 84, 2-(3-((2-(1,5-dimethyl-6-oxo-1,6-dihydropyridin-3-yl)-3-isopropyl-1H-indol-5-yl)oxy)piperidin-1-yl)-N,N-dimethylacetamide], for which the IC50 against human TLR7 amounted to 6.5 nM; at human TLR8 it was 2.9 nM; on human TLR9, 16900 nM.
For `Cc1cc(-c2[nH]c3ccc(OC4CCN(CC(=O)N(C)C)CC4)cc3c2C(C)C)cn2ncnc12` [Example 85, 2-(4-((3-isopropyl-2-(8-methyl-[1,2,4]triazolo[1,5-a]pyridin-6-yl)-1H-indol-5-yl)oxy)piperidin-1-yl)-N,N-dimethylacetamide] the same measures were 2.1 nM, 2.9 nM and 1350 nM.
For the compound `Cc1cc(-c2[nH]c3ccc(OCC4CCN(CC(=O)N(C)C)CC4)cc3c2C(C)C)cn2ncnc12` [Example 86, 2-(4-(((3-isopropyl-2-(8-methyl-[1,2,4]triazolo[1,5-a]pyridin-6-yl)-1H-indol-5-yl)oxy)methyl)piperidin-1-yl)-N,N-dimethylacetamide], the IC50 on human TLR7 amounted to 0.4 nM; on human TLR8, 2.8 nM; on human TLR9, 4380 nM.
For the compound `Cc1c(-c2[nH]c3ccc(OC4CCN(CC(=O)N(C)C)CC4)cc3c2C(C)C)cn(C)c(=O)c1C` [Example 87, 2-(4-((3-isopropyl-2-(1,4,5-trimethyl-6-oxo-1,6-dihydropyridin-3-yl)-1H-indol-5-yl)oxy)piperidin-1-yl)-N,N-dimethylacetamide], the 50% inhibitory concentration (IC50) worked out at 33.2 nM at human TLR7, 5.8 nM against human TLR8 and 19600 nM at human TLR9.
